Measurements as given in patent US8895504B2, “Amylin derivatives” (priority 2008, dated 2014).
*1 amine or outer side, *2 acyl side, *3 side chain or, on linkers, in order; H or OH if unused. Where a SMILES comes first, the peptide text is derived from it. Bridges are numbered along the chain shown (N, C = ends). Side-chain parts run from the residue outwards. The star is where a group is joined. C20 diacid = O=C(O)CCCCCCCCCCCCCCCCCCC(=O)*; γGlu = O=C(O)[C@H](CCC(=O)[*:2])N[*:1]; GABA = NCCCC(=O)O

These compounds were tested against T1, Amylin 3(a) receptor (human calcitonin receptor (CTa) and RAMP-3) (Homo sapiens, UniProt O60896+P30988) (assay: Luciferase assay (III), BHK Amylin 3(a)//CRE-luc cells). Conditions: BHK cells with Amylin 3(a) receptor and CRE luciferase reporter, 4 hours incubation; read-out: Potency Luciferase.
T1 construct: expressed in transfected cells; host or cells: BHK570 cells, stably transfected with a CRE-luciferase reporter
Assay type: cell-based
In short: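 BHK570 cells stably expressing CTa, RAMP-3 and a CRE-luciferase reporter, seeded at about 20,000 cells/well and grown overnight. Cells were exposed to standard or sample for 4 h at 37° C in phenol red-free DMEM with 10% FBS and 10 mM Hepes, pH 7,4. Luminescence was read after 30 min LucLite at room temperature.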

T1 sequence (O60896 24-148): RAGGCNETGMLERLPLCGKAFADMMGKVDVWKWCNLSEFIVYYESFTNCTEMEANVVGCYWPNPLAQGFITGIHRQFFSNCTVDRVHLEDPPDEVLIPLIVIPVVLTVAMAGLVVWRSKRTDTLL
T1 sequence (P30988 25-474): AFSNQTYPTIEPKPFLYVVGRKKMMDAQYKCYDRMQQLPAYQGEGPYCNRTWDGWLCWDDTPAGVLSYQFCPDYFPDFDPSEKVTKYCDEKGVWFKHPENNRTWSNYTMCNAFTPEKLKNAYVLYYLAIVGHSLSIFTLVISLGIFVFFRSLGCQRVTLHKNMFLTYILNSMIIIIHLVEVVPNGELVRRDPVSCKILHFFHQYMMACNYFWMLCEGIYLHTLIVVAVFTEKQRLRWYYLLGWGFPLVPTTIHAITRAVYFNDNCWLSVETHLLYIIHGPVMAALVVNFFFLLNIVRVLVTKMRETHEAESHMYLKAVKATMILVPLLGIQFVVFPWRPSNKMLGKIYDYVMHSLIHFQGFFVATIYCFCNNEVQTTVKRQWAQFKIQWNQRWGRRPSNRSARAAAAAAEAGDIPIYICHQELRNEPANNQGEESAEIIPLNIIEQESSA

Compared with `CC[C@H](C)[C@H](NC(=O)[C@@H]1CCCN1C(=O)CNC(=O)[C@H](Cc1ccccc1)NC(=O)[C@H](CC(N)=O)NC(=O)[C@H](CC(N)=O)NC(=O)[C@H](CO)NC(=O)[C@H](CO)NC(=O)[C@H](Cc1c[nH]cn1)NC(=O)[C@H](Cc1c[nH]cn1)NC(=O)[C@H](CC(C)C)NC(=O)[C@H](Cc1ccccc1)NC(=O)[C@H](CC(N)=O)NC(=O)[C@H](C)NC(=O)[C@H](CC(C)C)NC(=O)[C@H](CCCNC(=N)N)NC(=O)[C@H](CCC(N)=O)NC(=O)[C@@H](NC(=O)[C@H](C)NC(=O)[C@@H]1CSSC[C@H](NC(=O)CCCNC(=O)CCCCCCCCCCCCCCCCCCC(=O)O)C(=O)N[C@@H](CC(N)=O)C(=O)N[C@@H]([C@@H](C)O)C(=O)N[C@@H](C)C(=O)N[C@@H]([C@@H](C)O)C(=O)N1)[C@@H](C)O)C(=O)N[C@@H](CC(C)C)C(=O)N1CCC[C@H]1C(=O)N1CCC[C@H]1C(=O)N[C@H](C(=O)N[C@@H](CC(N)=O)C(=O)N[C@H](C(=O)NCC(=O)N[C@@H](CO)C(=O)N[C@@H](CC(N)=O)C(=O)N[C@H](C(=O)N[C@@H](Cc1ccc(O)cc1)C(N)=O)[C@@H](C)O)C(C)C)[C@@H](C)O` [Example 30, N-alpha-[4-(19-Carboxynonadecanoylamino)butyryl]-[His17]-pramlintide (2-37)] ({C20 diacid-GABA}-CNTATCATQRLANFLHHSSNNFGPILPPTNVGSNTY-NH2; disulfide 1-6), `CC[C@H](C)[C@H](NC(=O)[C@@H]1CCCN1C(=O)CNC(=O)[C@H](Cc1ccccc1)NC(=O)[C@H](CC(N)=O)NC(=O)[C@H](CC(N)=O)NC(=O)[C@H](CO)NC(=O)[C@H](CO)NC(=O)[C@H](Cc1c[nH]cn1)NC(=O)[C@H](CCCNC(=N)N)NC(=O)[C@H](CC(C)C)NC(=O)[C@H](Cc1ccccc1)NC(=O)[C@H](CC(N)=O)NC(=O)[C@H](C)NC(=O)[C@H](CC(C)C)NC(=O)[C@H](CCCNC(=N)N)NC(=O)[C@H](CCC(N)=O)NC(=O)[C@@H](NC(=O)[C@H](C)NC(=O)[C@@H]1CSSC[C@H](NC(=O)[C@H](CCC(=O)O)NC(=O)[C@H](CCC(=O)O)NC(=O)CC[C@H](NC(=O)CCCCCCCCCCCCCCCCCCC(=O)O)C(=O)O)C(=O)N[C@@H](CC(N)=O)C(=O)N[C@@H]([C@@H](C)O)C(=O)N[C@@H](C)C(=O)N[C@@H]([C@@H](C)O)C(=O)N1)[C@@H](C)O)C(=O)N[C@@H](CC(C)C)C(=O)N1CCC[C@H]1C(=O)N1CCC[C@H]1C(=O)N[C@H](C(=O)N[C@@H](CC(N)=O)C(=O)N[C@H](C(=O)NCC(=O)N[C@@H](CO)C(=O)N[C@@H](CC(N)=O)C(=O)N[C@H](C(=O)N[C@@H](Cc1ccc(O)cc1)C(N)=O)[C@@H](C)O)C(C)C)[C@@H](C)O` [Example 49, N-alpha-[(S)-4-Carboxy-4-(19-carboxynonadecanoylamino)butyryl]-Glu-[Glu1,Arg17]-pramlintide] ({C20 diacid-γGlu}-EECNTATCATQRLANFLRHSSNNFGPILPPTNVGSNTY-NH2; disulfide 3-8) is 5-fold higher in EC50: 0.06 nM for the first, 0.3 nM for the second. The first is the more potent here.

Going from `CC[C@H](C)[C@H](NC(=O)[C@@H]1CCCN1C(=O)CNC(=O)[C@H](Cc1ccccc1)NC(=O)[C@H](CC(N)=O)NC(=O)[C@H](CC(N)=O)NC(=O)[C@H](CO)NC(=O)[C@H](CO)NC(=O)[C@H](Cc1c[nH]cn1)NC(=O)[C@H](Cc1c[nH]cn1)NC(=O)[C@H](CC(C)C)NC(=O)[C@H](Cc1ccccc1)NC(=O)[C@H](CC(N)=O)NC(=O)[C@H](C)NC(=O)[C@H](CC(C)C)NC(=O)[C@H](CCCNC(=N)N)NC(=O)[C@H](CCC(N)=O)NC(=O)[C@@H](NC(=O)[C@H](C)NC(=O)[C@@H]1CSSC[C@H](NC(=O)[C@H](CCCNC(=N)N)NC(=O)[C@H](Cc2c[nH]cn2)NC(=O)[C@H](CCCNC(=N)N)NC(=O)[C@H](CCC(=O)O)NC(=O)CC[C@H](NC(=O)CCCCCCCCCCCCCCCCCCC(=O)O)C(=O)O)C(=O)N[C@@H](CC(N)=O)C(=O)N[C@@H]([C@@H](C)O)C(=O)N[C@@H](C)C(=O)N[C@@H]([C@@H](C)O)C(=O)N1)[C@@H](C)O)C(=O)N[C@@H](CC(C)C)C(=O)N1CCC[C@H]1C(=O)N1CCC[C@H]1C(=O)N[C@H](C(=O)N[C@@H](CC(N)=O)C(=O)N[C@H](C(=O)NCC(=O)N[C@@H](CO)C(=O)N[C@@H](CC(N)=O)C(=O)N[C@H](C(=O)N[C@@H](Cc1ccc(O)cc1)C(N)=O)[C@@H](C)O)C(C)C)[C@@H](C)O` [Example 69, N-alpha-[(S)-4-Carboxy-4-(19-carboxynonadecanoylamino)butyryl]-Glu-Arg-His-[Arg1,His17]-pramlintide] ({C20 diacid-γGlu}-ERHRCNTATCATQRLANFLHHSSNNFGPILPPTNVGSNTY-NH2; disulfide 5-10) to `CC[C@H](C)[C@H](NC(=O)[C@@H]1CCCN1C(=O)CNC(=O)[C@H](Cc1ccccc1)NC(=O)[C@H](CC(N)=O)NC(=O)[C@H](CC(=O)O)NC(=O)[C@H](CO)NC(=O)[C@H](CO)NC(=O)[C@H](Cc1c[nH]cn1)NC(=O)[C@H](Cc1c[nH]cn1)NC(=O)[C@H](CC(C)C)NC(=O)[C@H](Cc1ccccc1)NC(=O)[C@H](CC(N)=O)NC(=O)[C@H](C)NC(=O)[C@H](CC(C)C)NC(=O)[C@H](CCCNC(=N)N)NC(=O)[C@H](CCC(N)=O)NC(=O)[C@@H](NC(=O)[C@H](C)NC(=O)[C@@H]1CSSC[C@H](NC(=O)[C@@H](N)CCCCN)C(=O)N[C@@H](CCCCNC(=O)[C@H](CCC(=O)O)NC(=O)[C@H](CCC(=O)O)NC(=O)[C@H](CCC(=O)O)NC(=O)[C@H](CCC(=O)O)NC(=O)CCCCCCCCCCCCCCCCCCC(=O)O)C(=O)N[C@@H]([C@@H](C)O)C(=O)N[C@@H](C)C(=O)N[C@@H]([C@@H](C)O)C(=O)N1)[C@@H](C)O)C(=O)N[C@@H](CC(C)C)C(=O)N1CCC[C@H]1C(=O)N1CCC[C@H]1C(=O)N[C@H](C(=O)N[C@@H](CC(N)=O)C(=O)N[C@H](C(=O)NCC(=O)N[C@@H](CO)C(=O)N[C@@H](CC(N)=O)C(=O)N[C@H](C(=O)N[C@@H](Cc1ccc(O)cc1)C(N)=O)[C@@H](C)O)C(C)C)[C@@H](C)O` [Example 4, N-epsilon3-(19-carboxynonadecanoyl-Glu-Glu-Glu-Glu)-[Lys3,His17,Asp21]-pramlintide] (H-KCK([Glu-Glu-Glu-Glu-C20 diacid])TATCATQRLANFLHHSSDNFGPILPPTNVGSNTY-NH2; disulfide 2-7), the EC50 rises from 0.1 nM to 2 nM (20-fold).
